Consider one compound from patent US20130303562A1, “CHEMICAL AND RNAI SUPPRESSORS OF NEUROTOXICITY IN HUNTINGTON'S DISEASE” (priority 2010, published 2013).

Structures are written as SMILES. Entries after “also recorded” stand apart in the source; their conditions may differ.

Test [1] relates to subject carrying a polyQ tract expansion mutation in the Huntingtin gene. The test is described as follows: Carbenoxolone in pre-symptomatic HD patients. It counts as in vivo, human. To be noted: administered before clinical symptoms manifest, from about 150 mg/day. The procedure: After a period of time sufficient for a change in a cortisol level to manifest, e.g. after about a week, about two weeks, about three weeks, or about a month, the cortisol level in the subject is measured. […] For example, in some embodiments, the dose may be increased from about 150 mg/day to about 300 mg/day. In some embodiments, the cortisol level in the subject is measured again after dose adjustment and, if the cortisol level remains elevated, the dose is increased further. For example, in some embodiments, the dose may be increased from about 300 mg/day to about 450 mg/day. In some embodiments, multiple cycles of dose adjustment and cortisol level measurement are performed until a desired cortisol level is observed in the subject, for example, a blood plasma cortisol level within the range of 70-700 nmol/l or 70-350 nmol/l. For example, in some embodiments, the dose may be increased from about 150 mg/day to about 300 mg/day in a first dose adjustment, then to about 450 mg/day, then to about 500 mg/day, then to about 600 mg/day. […] In some cases, the dosage may be decreased below 150 mg/day, particularly, where a desired reduction in a cortisol level is still observed with lower doses. […]

The next test deals with Drosophila HD model. Kind of test: Early dosing of carbenoxolone in Drosophila HD model (lifespan, motor control). It counts as in vivo.
Test [2] relates to subject having or suspected of having the polyQ tract expansion disease HD. The test is described as follows: Oral carbenoxolone in subjects having or suspected of having HD. The format is in vivo, human. To be noted: about 100-700 mg/day. The procedure:
The carbenoxolone is administered orally in tablet form, for example, as carbenoxolone disodium salt. The dosage is within the range of about 100-700 mg/day, for example at about 150 mg/day, about 300 mg/day, or about 600 mg/day. […] Such monitoring includes measuring cognitive and motor function in the subject, and/or determining whether a slowing or reversal of a personality change commonly associated with HD is observable. In some instances, the monitoring includes measuring the aggregation of Htt protein, the number or size of inclusion bodies, and/or brain tissue homeostasis (e.g. detection of improved survival of neuronal cells and/or reduction in astrocytes). […] After a period of time sufficient for a desired change, e.g. an amelioration in an HD symptom, to manifest, the subject is then monitored for such a change. For example, the subject, in some embodiments, is monitored for cognitive function, for example, within a time frame of about a week to about 6 months (e.g., about one month or about two months) after administration is commenced. […] For example, in some embodiments, the dose may be increased from about 150 mg/day to about 300 mg/day. In some embodiments, the subject is monitored again for symptoms after dose adjustment and, if the symptoms persist at the same severity level, the dose is increased further. […]

For a further test, the system named is HD model strain mice. Kind of test: Rotarod assay in HD model strain mice. The format is in vivo, mouse. To be noted: treated from 4 weeks, tested at 8 weeks of age, vs untreated HD mice. The text has this:
Mouse strains: Mouse strain names provided herein adhere to the Guidelines for Nomenclature of Mouse and Rat Strains, Revised October 2011, International Committee on Standardized Genetic Nomenclature for Mice, accessible at www.informatics.jax.org/mgihome/nomen/strains.shtml. Official gene symbols, or, where appropriate, official mouse strain names of the Jackson Laboratory (www.jax.org, e.g., the Jackson Laboratory Mice Database at jaxmice.jax.org) are used. […]
Rotarod assay: Mice are habituated to balancing on a slowly rotating rotarod (5 rpm). […] The time to fall off the rod, onto a platform located ˜30 cm below the rod, is measured. The increase in latency to fall during the course of training is compared between four groups of mice for each candidate compound to be evaluated (Mutant+candidate, mutant no candidate, wild type+candidate, wild type no candidate). […]
At 8 weeks of age, motor and cognitive performance are tested in rotarod and water maze assays. Untreated mice are expected to show a significant impairment of motor and cognitive capabilities at 8 weeks of age, as measured by a shortened latency to fall in the rotarod assay, and a lengthened latency to escape in the water maze assy, respectively, as compared to wid type control mice.

Take `CC1(C)[C@@H](OC(=O)CCC(=O)O)CC[C@]2(C)[C@H]3C(=O)C=C4[C@@H]5C[C@@](C)(C(=O)O)CC[C@]5(C)CC[C@@]4(C)[C@]3(C)CC[C@@H]12` [Carbenoxolone]: the “Onset and severity of HD symptoms” value in test [1] is on record as “prevention or delay of the onset, and/or an amelioration of the severity of at least one HD symptom”. Moreover, the “Motor control / chorea (defective motor coordination)” value in the test on Drosophila HD model (Drosophila HD model) is recorded as “improves motor control; also recorded: improves chorea”. In the test with Drosophila HD model (early dosing), the “Drosophila HD model lifespan” value is given as “extends Drosophila HD model lifespan”. Further, the “HD symptoms (cognition, motor function, personality change)” value in test [2] is on record as “improvement of at least some HD symptoms”. Moreover, in the test with HD model strain mice, the “Impairment of motor capabilities (latency to fall, rotarod)” value is given as “lesser degree of impairment”.
